Values after ≈ are worked out from the molar mass of the structure shown.
Key:
Assay type in all cases: functional
A549 = assay: Compound was tested for its cytotoxic activity in MTT assay against A-549 cell line (human lung carcinoma); conditions: read-out: ED50 (the source's name)
Artemia = assay: Compound was tested for its cytotoxic activity by brine shrimp lethality test
HT-29 = assay: Compound was tested for its cytotoxic activity in MTT assay against HT-29 cell line (human colon adenocarcinoma); conditions: read-out: ED50 (the source's name)
MCF9 = assay: Compound was tested for its cytotoxic activity in MTT assay against MCF-9 cell line (human breast carcinoma); conditions: read-out: ED50 (the source's name)

| SMILES | EC50 (A549) [µg/mL] | LC50 (Artemia) [µg/mL] | EC50 (HT-29) [µg/mL] | EC50 (MCF9) [µg/mL] |
| --- | --- | --- | --- | --- |
| CO[C@]1(C(C)(C)O)CC[C@@H]([C@@H]2CC=C3[C@@]4(C)C(CC[C@]32C)[C@]2(C)C(C[C@H]4OC(C)=O)C(C)(C)C(OC(=O)c3ccccc3)C[C@@H]2OC(C)=O)CO1 (stereo partly specified) | 13.3 (≈ 18.7 µM) | 107 (≈ 150 µM) | 0.49 (≈ 0.691 µM) | 3.06 (≈ 4.32 µM) |
| CO[C@@]1(C(C)(C)O)CC[C@@H]([C@@H]2CC=C3[C@@]4(C)C(CC[C@]32C)[C@]2(C)C(C[C@H]4OC(C)=O)C(C)(C)C(OC(=O)c3ccccc3)C[C@@H]2OC(C)=O)CO1 (stereo partly specified) | 10.6 (≈ 15 µM) | 89.3 (≈ 126 µM) | 0.25 (≈ 0.353 µM) | 2.02 (≈ 2.85 µM) |
| COc1cccc2c1C(=O)c1c(O)c3c(c(O)c1C2=O)C[C@@](O)(C(=O)CO)C[C@@H]3O[C@H]1C[C@H](N)[C@H](O)[C@H](C)O1 [DOXORUBICIN] | 0.00844 (≈ 0.0155 µM) |  | 0.0261 (≈ 0.048 µM) | 0.0673 (≈ 0.124 µM) |

Reference: ChEMBL document CHEMBL1128616, “A pair of new apotirucallane triterpenes, meliavolkensins A and B, from Melia volkensii (Meliaceae)” (1995)
